Test results published in PMC4786016 (Environmental science & technology, 2015).
Structures can show the parent of a compound that is named as a salt. Where two headings read alike, the source gives them in different places.

Legend:
human PPARγ1 [1] = target: T1, human PPARγ1 (Homo sapiens, UniProt P37231)
HEK293 cells = test: Alamar Blue cell viability assay; details: high doses
human PPARγ1 [2] = target: T1, human PPARγ1; test: GeneBLAzer PPARγ1 non-DA reporter gene assay; details: for Emax: HEK293, read-out: ATVmax: maximal activation% of the tested compounds relative to rosiglitazone
PPARγ = details: cited from earlier work
[3] = HEK293 PPARγ1 reporter, 15% of rosiglitazone maximal response
[4] = HEK293 PPARγ1 reporter, 20% of rosiglitazone maximal response

| Compound | NOAEL (human PPARγ1 [1]) [µM] | ATVmax: maximal activation% of the tested compounds relative to rosiglitazone (human PPARγ1 [2]) [%] | EC15 (concentration inducing 15% activation) (human PPARγ1 [2]) [µM] | EC20 (concentration inducing 20% activation) (human PPARγ1 [2]) [µM] | [ATVmax]: concentration of the tested compounds to induce the maximal activation% (human PPARγ1 [2]) [µM] | efficacy (qualitative, based on ATVmax) (human PPARγ1 [2]) | further results |
| --- | --- | --- | --- | --- | --- | --- | --- |
| CCCCC(CC)COC(=O)c1c(Br)c(Br)c(Br)c(Br)c1C(=O)O (stereo not shown) [TBMEHP, mono-(2-ethyhexyl) tetrabromophthalate (metabolite)] | 0.13 | 40 | 0.53 | 0.78 | 3.3 | ++++ (key: + 7–20%; ++ 20–30%; +++ 30–40%; ++++ 40–50%; +++++ >50%) | cell viability (in words) (HEK293 cells): reduced viability at higher dosing levels |
| Oc1cc(Cl)ccc1Oc1ccc(Cl)cc1Cl [TCS, triclosan] | – | – | – | – | – | – | PPARγ binding potency (in words) (PPARγ): moderate binding potency; PPARγ1 activation (in words) (human PPARγ1 [2]): did not initiate any activation of PPARγ1; Emax (human PPARγ1 [2]): < 8% |
| Oc1c(I)cc(I)cc1I [2,4,6-TIP, 2,4,6-triiodinated phenol] | 0.4 | 20 | 8.72 | 11 | 11 | ++ (key: + 7–20%; ++ 20–30%; +++ 30–40%; ++++ 40–50%; +++++ >50%) | – |
| Firemaster 550 (mixture) [FM550] | 1.2 | – | – | – | – | – | – |
| CCCCOC(=O)c1ccccc1C(=O)OCCCC [DBP, dibutyl phthalate] | 0.4 | – | – | – | – | – | Emax (human PPARγ1 [2]): 23%; [ATVmax]: concentration of the tested compounds to induce the maximal activation% (human PPARγ1 [2]; HEK293 PPARγ1 reporter): 33 µM; efficacy (qualitative, based on ATVmax) (human PPARγ1 [2]; HEK293 PPARγ1 reporter): ++ (++ 20–30%); EC15 (concentration inducing 15% activation) (human PPARγ1 [2]; [3]): 6.73 µM; EC20 (concentration inducing 20% activation) (human PPARγ1 [2]; [4]): 13.6 µM |
| O=P(Oc1ccccc1)(Oc1ccccc1)Oc1ccccc1 [TPP, triphenyl phosphate] | 0.4 | 43 | 2.12 | 3.27 | 11 | ++++ (key: + 7–20%; ++ 20–30%; +++ 30–40%; ++++ 40–50%; +++++ >50%) | concentration at which the compound began to activate PPARγ1 (human PPARγ1 [2]): about 0.4 μM |
| monoisopropylated triaryl phosphates [mono-ITP] | 1.2 | 15 | 3.6 | – | 3.6 | + (key: + 7–20%; ++ 20–30%; +++ 30–40%; ++++ 40–50%; +++++ >50%) | cell viability (in words) (HEK293 cells): Highly reduced cell viability |
| CC(C)COC(=O)c1ccccc1C(=O)OCC(C)C [DiBP, diisobutyl phthalate] | 0.4 | – | 4.47 | 11.1 | 33 | ++ (key: + 7–20%; ++ 20–30%; +++ 30–40%; ++++ 40–50%; +++++ >50%) | Emax (human PPARγ1 [2]): 25% |
| isopropylated triaryl phosphates (mixture) [ITP] | 1.2 | – | – | – | – | – | – |
| CC(C)(c1cc(Cl)c(O)c(Cl)c1)c1cc(Cl)c(O)c(Cl)c1 [TCBPA, 3,5,3′,5′-tetrachlorobisphenol A] | 0.09 | – | – | – | – | – | [ATVmax]: concentration of the tested compounds to induce the maximal activation% (human PPARγ1 [2]; HEK293 PPARγ1 reporter): 7 µM; efficacy (qualitative, based on ATVmax) (human PPARγ1 [2]; HEK293 PPARγ1 reporter): +++++ (+++++ >50%); EC15 (concentration inducing 15% activation) (human PPARγ1 [2]; [3]): 0.23 µM; EC20 (concentration inducing 20% activation) (human PPARγ1 [2]; [4]): 0.47 µM; ATVmax: maximal activation% of the tested compounds relative to rosiglitazone (human PPARγ1 [2]; HEK293 PPARγ1 reporter, normalized to maximal response of rosiglitazone): 52% |
| O=C(O)c1cc(Br)c(Br)c(Br)c1Br [TBBA, 2,3,4,5-tetrabromobenzoic acid (metabolite)] | 1.2 | 20 | 8.16 | 33 | – | ++ (key: + 7–20%; ++ 20–30%; +++ 30–40%; ++++ 40–50%; +++++ >50%) | – |
| CCCCC/C=C/C=C1/C(=O)C=C[C@@H]1C/C=C\CCCC(=O)O [15d-PJG2, 15-Deoxy-D12,14-prostaglandin J2 (endogenous ligands), reference compound] | 0.01 | 85 | 0.51 | 0.74 | 33 | +++++ (key: + 7–20%; ++ 20–30%; +++ 30–40%; ++++ 40–50%; +++++ >50%) | concentration at which the compound began to activate PPARγ1 (human PPARγ1 [2]): 0.01 µM |
| [Cl][Sn]([c]1ccccc1)([c]1ccccc1)[c]1ccccc1 [TPT, triphenyltin chloride] | 0.0003 | 54 | 0.004 | 0.01 | 0.33 | +++++ (key: + 7–20%; ++ 20–30%; +++ 30–40%; ++++ 40–50%; +++++ >50%) | – |
| di-isopropylated triaryl phosphates [Di-ITP] | 1.2 | 16 | 3.25 | – | 3.6 | + (key: + 7–20%; ++ 20–30%; +++ 30–40%; ++++ 40–50%; +++++ >50%) | cell viability (in words) (HEK293 cells): Highly reduced cell viability |
| CCCCC(CC)COC(=O)c1ccccc1C(=O)OCC(CC)CCCC (stereo not shown) [DEHP, bis(2-ethylhexyl) phthalate] | – | – | – | – | – | – | PPARγ1 activation (in words) (human PPARγ1 [2]; reporter assay): no activation was observed |
| CCCCC(CC)COC(=O)/C=C/C(=O)OCC(CC)CCCC (stereo not shown) [BEHF, bis(2-ethylhexyl) fumarate] | – | – | – | – | – | – | Emax (human PPARγ1 [2]): < 8%; PPARγ1 activation (in words) (human PPARγ1 [2]; reporter assay): did not display any obvious PPARγ1 activation |
| c1ccc(OP(Oc2ccccc2)Oc2ccccc2)cc1 [TPPi, triphenyl phosphite] | 1.2 | – | – | – | – | – | – |
| CC(C)(C)c1ccc(OP(=O)(Oc2ccc(C(C)(C)C)cc2)Oc2ccc(C(C)(C)C)cc2)cc1 [TBPP, tris (4,tert-butyl-phenyl) phosphate] | 0.4 | 12 | – | – | 11 | + (key: + 7–20%; ++ 20–30%; +++ 30–40%; ++++ 40–50%; +++++ >50%) | – |
| CN(CCOc1ccc(CC2SC(=O)NC2=O)cc1)c1ccccn1 (stereo not shown) [Rosi., rosiglitazone (positive control), reference compound] | – | – | – | – | – | – | NOAEL (human PPARγ1 [2]; HEK293 PPARγ1 reporter, nonobservable adverse effect level): 0.00001 µM |
| Oc1cc(Br)cc(Br)c1Oc1ccc(Br)cc1Br [6-OH-BDE47, 6-hydroxide-2,2′,4,4′-tetrabromodiphenyl ether (metabolite)] | – | <8 | – | – | – | – | PPARγ1 activation (in words) (human PPARγ1 [2]): no activation was observed |
| CCCCOC(=O)c1ccccc1C(=O)OCc1ccccc1 [BzBP, benzylbutyl phthalate] | 0.13 | 34 | 2.94 | 4.81 | 10 | +++ (key: + 7–20%; ++ 20–30%; +++ 30–40%; ++++ 40–50%; +++++ >50%) | – |
| Oc1c(Br)cc(Br)cc1Br [2,4,6-TBP, 2,4,6-tribrominated phenol] | 0.8 | 18 | 5.89 | – | 7 | + (key: + 7–20%; ++ 20–30%; +++ 30–40%; ++++ 40–50%; +++++ >50%) | – |
| tri-isopropylated triaryl phosphates [Tri-ITP] | 1.2 | 41 | 5.7 | 7.76 | 33 | ++++ (key: + 7–20%; ++ 20–30%; +++ 30–40%; ++++ 40–50%; +++++ >50%) | concentration at which the compound began to activate PPARγ1 (human PPARγ1 [2]): 1.2 µM |
| tert-butyl phenyl diphenyl phosphate (mixture) [BPDP] | 0.4 | – | – | – | – | – | – |
